Measurements published in patent US20060172004A1, “Oral compositions for the stimulation of gastric acid secretion comprising pentagastrin” (priority 2003, published 2006).
Read-outs that look alike come from different tables or passages of the source.

Key:
gastrin receptor (CCKB) = target: T1, gastrin receptor (CCKB) (Rattus norvegicus, UniProt P30553); experiment: Effect of CCKB antagonist on PG-mediated gastric acid secretion in pylorus-ligated rats; format: in vivo
T1 construct: from tissue; host or cells: stomach of live anesthetized pylorus-ligated rats (in vivo)
T1 sequence (P30553 1-452): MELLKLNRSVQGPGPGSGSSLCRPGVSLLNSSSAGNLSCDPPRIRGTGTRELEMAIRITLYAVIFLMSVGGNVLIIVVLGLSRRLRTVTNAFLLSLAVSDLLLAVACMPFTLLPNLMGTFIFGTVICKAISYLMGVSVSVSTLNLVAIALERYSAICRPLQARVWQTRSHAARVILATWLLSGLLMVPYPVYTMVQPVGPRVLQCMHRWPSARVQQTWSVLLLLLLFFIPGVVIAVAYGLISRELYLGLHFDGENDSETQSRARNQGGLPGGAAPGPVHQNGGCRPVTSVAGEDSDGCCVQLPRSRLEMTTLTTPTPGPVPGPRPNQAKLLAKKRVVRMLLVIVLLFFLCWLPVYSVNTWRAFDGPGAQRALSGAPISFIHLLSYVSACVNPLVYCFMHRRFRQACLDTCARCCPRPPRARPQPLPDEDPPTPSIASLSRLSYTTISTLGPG
Method: As PG is a gastrin hormone homologue, its local effect is thought to be mediated via gastrin pathway, i.e. an activation of gastrin receptor (CCKB). To test this hypothesis the effect of the specific CCKB antagonist (Itriglumide) on PG-mediated acid secretion in rats was examined.
In this study, rats were anesthetized with Ketamine and Domitor mixture and provided with 20 mg/kg of Itriglumide that was administered intraduodenally (i.d.). Following 15 min, gastric pylorus was ligated and 300 μg/kg PG was administered into the stomach (i.g.). After 30 min, gastric juice was obtained, centrifuged and the volume and pH of the supernatants were measured. The acid concentration (titratable acidity) was analyzed by titration the gastric juice samples with NaOH and total acid output expressed in […] HCl was calculated by multiplying the sample volume by the acid concentration.

[1] = for radioactivity in systemic circulation: oral dose 50×10^6 CPM; for Radioactivity in systemic circulation % of Total Radioactivity/Dose: 50 μg/kg
Method: The bioavailability of PG in rats following oral administration of ^3H-labeled PG was studied. Male Wister Hanover rats were anaesthetized and catheters were positioned in the jugular vein for blood sampling. Rats were treated orally with ^3H-PG at a dose of 50 μg/kg (50×10^6 CPM per dose) and blood samples were drawn at 5, 15 and 30 minutes. The radioactivity in blood samples at each time point was determined by a β-counter.

gastric acid secretion = experiment: Gastric pH and acid output after tetragastrin s.c. or per os in pylorus-ligated rats; format: in vivo, Wister rats; conditions: for acid secretion: 30 min, titration with NaOH to pH 7; for gastric pH: gastric juice collected 30 min after treatment
Method: The effect of tetragastrin (Trp-Met-Asp-PheNH2) administered orally in stimulating gastric acid secretion was examined. […] Tetragastrin was administered either s.c. (25 μg/kg) or per os (206 μg/kg) and gastric juice was collected 30 min following treatment. Acid concentration was measured by titration the samples with NaOH to pH=7. Results are expressed as means±SEM of 3-4 animals.

For `Cc1cc(C)c(NC(=O)C[C@H](CC(=O)O)c2cccc3ccccc23)c(C(=O)N2CCC3(CCCC3)CC2)c1` [CCKB ant., Itriglumide], the “Acid Output MEAN” value (gastrin receptor (CCKB); CCKB ant. i.d. 20 mg/kg alone, pylorus-ligated rats) was 15.24 pEq HCl and the “effect of antagonist on PG-mediated gastric acid secretion” value (gastrin receptor (CCKB); intraduodenal 20 mg/kg, PG 300 μg/kg i.g., rats) was “inhibits the local effect of PG on gastric acid secretion”.

With `CSCC[C@H](NC(=O)[C@H](Cc1c[nH]c2ccccc12)NC(=O)CCNC(=O)OC(C)(C)C)C(=O)N[C@@H](CC(=O)O)C(=O)N[C@@H](Cc1ccccc1)C(N)=O` [^3H-PG] the “radioactivity in systemic circulation” value ([1]; 5 min) was 748×10^3 CPM, the “Radioactivity in systemic circulation % of Total Radioactivity/Dose” value ([1]; 5 min following oral administration) was 1.43% and the “radioactivity in systemic circulation” value ([1]; 15 min) was 982×10^3 CPM. For the same compound, the “Radioactivity in systemic circulation % of Total Radioactivity/Dose” value ([1]; 15 min following oral administration) was 1.67%, the “radioactivity in systemic circulation” value ([1]; 30 min) was 832×10^3 CPM and the “Radioactivity in systemic circulation % of Total Radioactivity/Dose” value ([1]; 30 min following oral administration) was 1.42%. The “share of total orally administered radioactivity that entered the systemic circulation” value ([1]; oral 50 μg/kg (50×10^6 CPM), over 5-30 min) was “approximately 1.5%”.

For `CSCC[C@H](NC(=O)[C@@H](N)Cc1c[nH]c2ccccc12)C(=O)N[C@@H](CC(=O)O)C(=O)N[C@@H](Cc1ccccc1)C(N)=O` [tetragastrin, Trp-Met-Asp-PheNH2], the “local stimulation of gastric acid secretion compared to PG” value (gastric acid secretion; equimolar dose, oral) was “less prominent as compared to PG”, the acid secretion (gastric acid secretion; per os 206 μg/kg) was “elevated acid secretion” and the “gastric pH” value (gastric acid secretion; per os 206 μg/kg) was “reduced gastric pH”. The acid secretion (gastric acid secretion; s.c. 25 μg/kg) was “elevated acid secretion” and the “gastric pH” value (gastric acid secretion; s.c. 25 μg/kg) was “reduced gastric pH”.
